In patent US20240398771A1, “TREATMENT OF SCLERODERMA AND RAYNAUD'S SYNDROME” (Aisa Pharma, Inc., priority 2023, published 2024):

How the values were obtained:
participants with SSc-RP [1] = assay: Average duration of weekly RP attacks, all attacks (minutes); type: in vivo, human; conditions: ITT Population - Part A (Table B-5)
Description: The relevant metrics measured by this tool daily are: • Study medication • SSc-RP symptoms (Reporting an attack including duration of attack) • Severity of the attack considering all symptoms of the attack e.g. tingling, numbness, pain, color changes (VAS 0-10 cm scale) • Participant's location at the time of the attack (inside home/outside home) • Selecting symptoms experienced during the attack (tingling, numbness, pain, color changes, other) • Pain rating during the attack (11-point Likert scale) • The RCS based on how much difficulty participants had with Raynaud's today, how many attacks the participant had, and how long they lasted. Participants will also be asked to consider how much pain, numbness, or other symptoms the Raynaud's caused in fingers (including painful sores), and how much the Raynaud's alone affected the use of hands today (VAS 0-10 cm scale).
The absolute change in average duration of weekly RP attacks from baseline to the end of each dosing period was and will be a secondary outcome variable. The sponsor-developed participant-informed diary was and will be used to record data. Average duration of weekly RP attacks is defined as the total duration of RP attacks divided by total number of RP attacks within the last 7 days of each dosing period. Total duration of RP attacks during the last 7 days of screening period divided by the total number of RP attacks will be used as baseline for the analysis of all periods. The variable will be calculated similar to frequency data as before.

participants with SSc-RP [2] = assay: SHAQ Visual Analog Scale - Pain; type: in vivo, human
Experimental: Results: Patients in the study were administered the Scleroderma Health Assessment Questionnaire (SHAQ) at the time of study entry and during clinic visits following the treatment period. The study is a two-part, parallel arm design, prospective, double-blind, randomized study conducted in Australia (Flinders Medical Center). 27 patients were randomized into the first phase of the study, following which a DSMB meeting was held, which reviewed data on the primary study endpoint and key Raynaud's secondary endpoints. Data on the SHAQ was not available for the DSMB to review. The mITT population, in which any data was available post treatment was 24 patients was the analysis population for this first part of the study. The second part (i.e., part B) of the study will randomize 36 patients in a double blind, randomized, prospective, placebo controlled, crossover study. In the first part (i.e., Part A) of the study for which data is presented, patients were randomized into 6 groups, cilnidipine at two doses (10 and 20 mg) alone and in combination with tadalafil 5 mg, tadalafil 5 mg alone, and placebo. […] The DSMB recommended that the study proceed into its double blind prospective cross overpowered second phase and compare cilnidipine 20 mg alone to placebo. […] Cilnidipine treatment may reduce patient-reported SSc disease disability compared to placebo • b. Cilnidipine treatment may reduce patient-reported SSc disease alternative disability compared to placebo • c. Cilnidipine treatment may reduce patient-reported SSc disease pain* compared to placebo • d. Cilnidipine treatment may reduce patient-reported SSc disease severity compared to placebo • e. Cilnidipine treatment may reduce patient-reported SSc disease skin ulcer severity rating compared to placebo • f Cilnidipine treatment may reduce patient-reported SSc disease breathing difficulty compared to placebo • g. […] SSc disease pain comprises not only pain from Raynaud's but joint pain, headache, odynophagia, back pain, pain from skin ulceration, and neuropathic pain). Table E includes results of the Scleroderma Health Assessment Questionnaire.
Pain on the SHAQ outcome measure on the first line in table F is a composite of all pain experienced in patients with SSc, comprising joint pain, back pain, headache, odynophagia, skin ulcer related discomfort, Raynaud's, and neuropathic pain. Aisa Pharma believes, based on the biologic attributes and actions of cilnidipine that differ from most dihydropyridine calcium channel antagonists that cilnidipine might have direct analgesic effects in certain pain conditions and in fact has been designated to receive evaluation through the NIH-NINDS Preclinical Pain Screening Platform Program to investigate the drug in multiple in vitro and in vivo preclinical models of pain that are validated and predictive of effects in man.

[3] = last 7 days of dosing period, listed as Cilnidipine 10 mg
[4] = last 7 days of dosing period, listed as Cilnidipine 20 mg
[5] = last 7 days of dosing period, listed as Pooled Cilnidipine
[6] = last 7 days of screening period, listed as Cilnidipine 10 mg
[7] = last 7 days of screening period, listed as Cilnidipine 20 mg
[8] = last 7 days of screening period, listed as Pooled Cilnidipine

## COCCOC(=O)C1=C(C)NC(C)=C(C(=O)OC/C=C/c2ccccc2)C1c1cccc([N+](=O)[O-])c1 (stereo not shown) [Cilnidipine, 1,4-dihydro-2,6-dimethyl,4-(3-nitrophenyl)-3,5-pyridinedicarboxylic acid 2-methoxyethyl (2 E)-3-phenyl-2-propenyl ester]
Participants with SSc-RP [1]; [3]
  Average Duration of weekly RP attacks (All Attacks), Max: 31.5, 31.5 minutes
  Average Duration of weekly RP attacks (All Attacks), Min: 31.5, 31.5 minutes
  Average duration of weekly RP attacks (All Attacks), Change from Baseline, Max: −8.5, −8.5 minutes
  Average duration of weekly RP attacks (All Attacks), Change from Baseline, Min: −8.5, −8.5 minutes
Participants with SSc-RP [1]; [4]
  Average Duration of weekly RP attacks (All Attacks): 3.0 min
  Average Duration of weekly RP attacks (All Attacks), Max: 30.5 min
  Average Duration of weekly RP attacks (All Attacks), Q1: 3.00 min
  Average duration of weekly RP attacks (All Attacks), Change from Baseline: -7.6 min
  Average duration of weekly RP attacks (All Attacks), Change from Baseline, Max: 5.5 min
  Average duration of weekly RP attacks (All Attacks), Change from Baseline, Q3: 5.45 min
  Average duration of weekly RP attacks (All Attacks), Percent Change from Baseline, Max: 21.8%
  Average duration of weekly RP attacks (All Attacks), Percent Change from Baseline, Min: −71.8%
  Average duration of weekly RP attacks (All Attacks), Percent Change from Baseline, Q1: −71.76%
  Average duration of weekly RP attacks (All Attacks), Percent Change from Baseline, Q3: 21.82%
Participants with SSc-RP [1]; [5]
  Average Duration of weekly RP attacks (All Attacks): 3.0 min
  Average Duration of weekly RP attacks (All Attacks), Max: 31.5 min
  Average Duration of weekly RP attacks (All Attacks), Q1: 3.00 min
  Average duration of weekly RP attacks (All Attacks), Change from Baseline: -8.5 min
  Average duration of weekly RP attacks (All Attacks), Change from Baseline, Max: 5.5 min
  Average duration of weekly RP attacks (All Attacks), Change from Baseline, Median: -7.63 min
  Average duration of weekly RP attacks (All Attacks), Change from Baseline, Q1: -8.48 min
  Average duration of weekly RP attacks (All Attacks), Change from Baseline, Q3: 5.45 min
  Average duration of weekly RP attacks (All Attacks), Percent Change from Baseline, Max: 21.8%
  Average duration of weekly RP attacks (All Attacks), Percent Change from Baseline, Min: −71.8%
  Average duration of weekly RP attacks (All Attacks), Percent Change from Baseline, Q1: −71.76%
  Average duration of weekly RP attacks (All Attacks), Percent Change from Baseline, Q3: 21.82%
Participants with SSc-RP [1]; [6]
  Average duration of weekly RP attacks (All Attacks), Baseline, Max: 40.0, 40.0 minutes
  Average duration of weekly RP attacks (All Attacks), Baseline, Min: 40.0, 40.0 minutes
  Average duration of weekly RP attacks (All Attacks), Baseline, Q1: 40.00, 40.00 minutes
  Average duration of weekly RP attacks (All Attacks), Baseline, Q3: 40.00, 40.00 minutes
Participants with SSc-RP [1]; [7]
  Average duration of weekly RP attacks (All Attacks), Baseline: 10.6 min
  Average duration of weekly RP attacks (All Attacks), Baseline, Max: 25.0 min
  Average duration of weekly RP attacks (All Attacks), Baseline, Q1: 10.63 min
  Average duration of weekly RP attacks (All Attacks), Baseline, Q3: 25.00 min
Participants with SSc-RP [1]; [8]
  Average duration of weekly RP attacks (All Attacks), Baseline: 10.6 min
  Average duration of weekly RP attacks (All Attacks), Baseline, Max: 40.0 min
  Average duration of weekly RP attacks (All Attacks), Baseline, Mean: 25.21 min
  Average duration of weekly RP attacks (All Attacks), Baseline, Median: 25.00 min
  Average duration of weekly RP attacks (All Attacks), Baseline, Q1: 10.63 min
  Average duration of weekly RP attacks (All Attacks), Baseline, Q3: 40.00 min
Participants with SSc-RP [2]; Cilnidipine 20 mg (n = 3), footnote *
  VAS- PAIN, Baseline on a 0-10 VAS: *Baseline was 2.17 on a 0-10 VAS
Participants with SSc-RP [2]; Cilnidipine 20 mg, Modified ITT, Part A
  Visual Analog Scale-Pain, Baseline, Median: 1.500
Participants with SSc-RP [2]; Example 4, SHAQ, mITT Part A
  patient-reported SSc disease pain compared to placebo: may reduce
